Experimental data published in US8445689B2, “Pesticides” (Dow AgroSciences, LLC., priority 2008, dated 2013).

Tested on: Green Peach Aphid (Myzus persicae)
Assay: Insecticidal test for green peach aphid in foliar spray assay on cabbage
Type: in vivo
Settings: 72 h, 200 ppm foliar spray on cabbage seedlings, graded after 3 d, corrected % control (Abbott), read-out: Rating against green peach aphid on cabbage (foliar spray)
Experimental: Compounds 1-67 were tested against green peach aphid using procedures described hereinafter.
Insecticidal Test for Green Peach Aphid (Myzus persicae) in Foliar Spray Assay
Cabbage seedlings grown in 3-inch pots, with 2-3 small (3-5 cm) true leaves, were used as test substrate. The seedlings were infested with 20-50 green peach aphids (wingless adult and nymph) 1-2 d prior to chemical application. Four seedlings were used for each treatment. Compounds (2 mg) were dissolved in 2 mL of acetone-methanol (1:1) solvent, forming stock solutions of 1000 ppm. The stock solutions were diluted 5× with 0.025% Tween 20 in H2O to obtain a solution at 200 ppm. A hand-held Devilbiss aspirator sprayer was used for spraying a solution to both sides of cabbage leaves until runoff. Reference plants (solvent check) were sprayed with the diluent only. Treated plants were held in a holding room for 3 d at approximately 23° C. and 40% RH prior to grading. Evaluation was conducted by counting the number of live aphids per plant under a microscope. Insecticidal activity was measured by using Abbott's correction formula: Corrected % Control=100*(X−Y)/X • where X=No. of live aphids on solvent check plants • Y=No. of live aphids on treated plants

SMILES | pest or weed control at 200 ppm [%]
CC(c1ccc(C(F)(F)F)nc1)S(C)(=O)=NC(=O)NC(=O)CCl (stereo not drawn) [Compound 3, N-(chloroacetyl)-N′-(methyl(oxido){1-[6-(trifluoromethyl)pyridin-3-yl]ethyl}-λ^4-sulfanylidene)urea] | 80 to 100
CC(c1ccc(C(F)(F)F)nc1)S(C)(=O)=NC(=S)Nc1cccnc1 (stereo not drawn) [Compound 4, N-(methyl(oxido){1-[6-(trifluoromethyl)pyridin-3-yl]ethyl}-λ^4-sulfanylidene)-N′-pyridin-3-ylthiourea] | < 80
CCNC(=S)N=S(C)(=O)C(C)c1ccc(C(F)(F)F)nc1 (stereo not drawn) [Compound 6] | 80 to 100
CC(c1ccc(C(F)(F)F)nc1)S(C)(=O)=NC(=S)NCc1ccco1 (stereo not drawn) [Compound 8] | 80 to 100
COC(=O)C(C)NC(=S)N=S(C)(=O)C(C)c1ccc(C(F)(F)F)nc1 (stereo not drawn) [Compound 10] | 80 to 100
CC(c1ccc(C(F)(F)F)nc1)S(C)(=O)=NC(=S)NCCN1CCOCC1 (stereo not drawn) [Compound 11] | 80 to 100
CCOC(=O)CNC(=S)N=S(C)(=O)C(C)c1ccc(C(F)(F)F)nc1 (stereo not drawn) [Compound 12] | 80 to 100
CNC(=S)N=S(C)(=O)C(C)c1ccc(C(F)(F)F)nc1 (stereo not drawn) [Compound 13] | 80 to 100
CC(c1ccc(C(F)(F)F)nc1)S(C)(=O)=NC(=S)NC(=O)c1ccc(Cl)cc1 (stereo not drawn) [Compound 16] | 80 to 100
COc1ccc(C(=O)NC(=S)N=S(C)(=O)C(C)c2ccc(C(F)(F)F)nc2)cc1 (stereo not drawn) [Compound 17] | 80 to 100
CC(c1ccc(C(F)(F)F)nc1)S(C)(=O)=NC(=S)NC(=O)c1ccco1 (stereo not drawn) [Compound 18] | 80 to 100
CC(c1ccc(C(F)(F)F)nc1)S(C)(=O)=NC(=S)N(C)C (stereo not drawn) [Compound 23, N,N-dimethyl-N′-(methyl(oxido){1-[6-(trifluoromethyl)pyridin-3-yl]ethyl}-λ^4-sulfanylidene)thiourea] | 80 to 100
CCN(CC)C(=S)N=S(C)(=O)C(C)c1ccc(C(F)(F)F)nc1 (stereo not drawn) [Compound 24] | 80 to 100
CC(c1ccc(C(F)(F)F)nc1)S(C)(=O)=NC(=S)N1CCCC1 (stereo not drawn) [Compound 25] | 80 to 100
CC(c1ccc(C(F)(F)F)nc1)S(C)(=O)=NC(=S)N1CCCCC1 (stereo not drawn) [Compound 26] | 80 to 100
CC(c1ccc(C(F)(F)F)nc1)S(C)(=O)=NC(=S)N1CCOCC1 (stereo not drawn) [Compound 27] | 80 to 100
CS(=O)(Cc1ccc(C(F)(F)F)nc1)=NC(N)=S (stereo not drawn) [Compound 29, N-(methyl(oxido){[6-(trifluoromethyl)pyridin-3-yl]methyl}-λ^4-sulfanylidene)thiourea] | 80 to 100
CS(=O)(=N/C(N)=N/O)C(CC1CC1)c1ccc(Cl)nc1 (stereo not drawn) [Compound 40, N-[[1-(6-chloropyridin-3-yl)-2-cyclopropylethyl](methyl)oxido-λ^4-sulfanylidene]-N″-hydroxyguanidine] | < 80
CS(=O)(=N/C(N)=N/O)C(C/C=C/Cl)c1ccc(Cl)nc1 (stereo not drawn) [Compound 41, N-[[(3E)-4-Chloro-1-(6-chloropyridin-3-yl)but-3-enyl](methyl)oxido-λ^4-sulfanylidene]-N″-hydroxyguanidine] | < 80
CS(=O)(Cc1ccc(C(F)(F)F)nc1)=N/C(N)=N/O (stereo not drawn) [Compound 42, N′-hydroxy-N-(methyl(oxido){[6-(trifluoromethyl)pyridin-3-yl]methyl}-λ^4-sulfanylidene)guanidine] | 80 to 100

SMILES | pest or weed control at 200 ppm [%]
CS(=O)(=N/C(N)=N/O)C(CC1CC1)c1ccc(C(F)(F)F)nc1 (stereo not drawn) [Compound 43, N-[{2-cyclopropyl-1-[6-(trifluoromethyl)pyridin-3-yl]ethyl}(methyl)oxido-λ^4-sulfanylidene]-N″-hydroxyguanidine] | 80 to 100
CC(=O)O/N=C(\N)N=S(C)(=O)C(C)c1ccc(C(F)(F)F)nc1 (stereo not drawn) [Compound 44, N″-(acetyloxy)-N-(methyl(oxido){1-[6-(trifluoromethyl)pyridin-3-yl]ethyl}-λ^4-sulfanylidene)guanidine] | 80 to 100
CC(c1ccc(C(F)(F)F)nc1)S(C)(=O)=NC(=N)N (stereo not drawn) [Compound 45, N-(methyl(oxido){1-[6-(trifluoromethyl)pyridin-3-yl]ethyl}-λ^4-sulfanylidene)guanidine] | < 80
CC(c1ccc(C(F)(F)F)nc1)S(C)(=O)=N/C(N)=N/OCc1ccc(Cl)cc1 (stereo not drawn) [Compound 46, N′-[(4-chlorobenzyl)oxy]-N-(methyl(oxido) {1-[6-(trifluoromethyl)pyridin-3-yl]ethyl}-λ^4-sulfanylidene)guanidine] | 80 to 100
COc1ccc(CO/N=C(\N)N=S(C)(=O)C(C)c2ccc(C(F)(F)F)nc2)cc1 (stereo not drawn) [Compound 47] | 80 to 100
CO/N=C(\N)N=S(C)(=O)C(C)c1ccc(C(F)(F)F)nc1 (stereo not drawn) [Compound 48] | 80 to 100
CCO/N=C(\N)N=S(C)(=O)C(C)c1ccc(C(F)(F)F)nc1 (stereo not drawn) [Compound 49] | 80 to 100
CC(C)O/N=C(\N)N=S(C)(=O)C(C)c1ccc(C(F)(F)F)nc1 (stereo not drawn) [Compound 50] | 80 to 100
CC(c1ccc(C(F)(F)F)nc1)S(C)(=O)=N/C(N)=N/OCC1CC1 (stereo not drawn) [Compound 51] | 80 to 100
CC(c1ccc(C(F)(F)F)nc1)S(C)(=O)=N/C(N)=N/OCC1CC1(F)F (stereo not drawn) [Compound 52] | 80 to 100
C=CCO/N=C(\N)N=S(C)(=O)C(C)c1ccc(C(F)(F)F)nc1 (stereo not drawn) [Compound 53] | 80 to 100
CC(c1ccc(C(F)(F)F)nc1)S(C)(=O)=N/C(N)=N/OCCCF (stereo not drawn) [Compound 54] | 80 to 100
CC(c1ccc(C(F)(F)F)nc1)S(C)(=O)=N/C(N)=N/OCCCCF (stereo not drawn) [Compound 55] | 80 to 100
CC(c1ccc(C(F)(F)F)nc1)S(C)(=O)=N/C(N)=N/OCCC=C(F)F (stereo not drawn) [Compound 56] | 80 to 100
CC(c1ccc(C(F)(F)F)nc1)S(C)(=O)=N/C(=N/OCc1ccc(Cl)cc1)NCc1ccc(Cl)cc1 (stereo not drawn) [Compound 57] | < 80
COc1ccc(CN/C(N=S(C)(=O)C(C)c2ccc(C(F)(F)F)nc2)=N\OCc2ccc(OC)cc2)cc1 (stereo not drawn) [Compound 58] | 80 to 100
CC(c1ccc(C(F)(F)F)nc1)S(C)(=O)=N/C(N)=N/OCCF (stereo not drawn) [Compound 59] | 80 to 100
COCCO/N=C(\N)N=S(C)(=O)C(C)c1ccc(C(F)(F)F)nc1 (stereo not drawn) [Compound 60] | 80 to 100
CC(c1ccc(C(F)(F)F)nc1)S(C)(=O)=N/C(N)=N/OCC1CO1 (stereo not drawn) [Compound 61] | 80 to 100
CN/C(N=S(C)(=O)C(C)c1ccc(C(F)(F)F)nc1)=N\OC (stereo not drawn) [Compound 63, N″-methoxy-N-methyl-N′-(methyl(oxido){1-[6-(trifluoromethyl)pyridin-3-yl]ethyl}-λ^4-sulfanylidene)guanidine] | 80 to 100

Same assay, conditions: foliar, 72 h, read-out: Rating against green peach aphid on cabbage (foliar spray)

SMILES | pest or weed control at 200 ppm [%]
CCOC(=O)NC(=S)N=S(C)(=O)C(C)c1ccc(C(F)(F)F)nc1 (stereo not drawn) [Compound 19] | 80 to 100
Cc1ccc(C(C)S(C)(=O)=NC(=S)NC(=O)OCC2c3ccccc3-c3ccccc32)cn1 (stereo not drawn) [Compound 32, 9H-fluoren-9-ylmethyl({methyl[1-(6-methylpyridin-3-yl)ethyl]oxido-λ^4-sulfanylidene}amino)carbonothioylcarbamate] | < 80
